Assay results: patent publication US8314098B2, “Pyrazolo-pyrimidine compounds” (Ajinomoto Co., Inc., priority 2008, dated 2012)

Key:
[1] = test system: IL-12p40; assay: IL-12p40 production inhibition in macrophages derived from mouse abdomen (IFN-γ/SAC stimulation, ELISA); format: cell-based; conditions: Macrophage; mouse (Balb/c) abdominal macrophages, 100 ng/mL mouse IFN-γ + 0.05% SAC, overnight
Procedure: One milliliter each of a 3% (w/v) thioglycolate solution was intraperitoneally administered to mice (female Balb/c mice), the abdominal cells of each mouse were recovered after 5 or 6 days from the administration of the thioglycolate solution and the adhesive cells were collected and used in the exaluation procedures. To a culture medium containing such adhesive cells, there were added 100 ng/mL of mouse interferon-γ and a 0.05% (v/v) liquid containing killed cells derived from Staphylococcus aureus Cowan I strain (SAC) and a candidate compound and then the mixture was cultivated overnight. After the completion of the cultivation, the survival ratios were determined, there were quantitatively determined the quantities of IL-12p70 (the complex of IL-12p35 and p40) and IL-12p40 or TNF-α according to the ELISA assays while making use of the recovered supernatant of the culture medium and the 50% production-inhibitory concentration (IC50) was calculated for each case (see Table 1 and Tables 1-9 for IL-12p70 and TNF-α and Tables 1 to 10 for IL-12p40).

[2] = test system: TNF-α; assay: TNF-α production inhibition in macrophages derived from mouse abdomen (IFN-γ/SAC stimulation, ELISA); format: cell-based; conditions: Macrophage; mouse (Balb/c) abdominal macrophages, 100 ng/mL mouse IFN-γ + 0.05% SAC, overnight; TFA salts tested where prepared as such; read-out: TNF-α-Inhibitory Activity IC50
Summary of the method: (§1)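 Thioglycolate-elicited adherent peritoneal macrophages from female Balb/c mice were collected 5–6 days after dosing. Cells were stimulated overnight with 100 ng/mL mouse IFN-γ plus 0.05% (v/v) killed S. aureus Cowan I, with compound present. IL-12p70, IL-12p40 and TNF-α in supernatants were measured by ELISA and IC50s derived, with cell survival also checked.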

[3] = test system: IL-12p70 (the complex of IL-12p35 and p40); assay: IL-12p70 production inhibition in macrophages derived from mouse abdomen (IFN-γ/SAC stimulation, ELISA); format: cell-based; conditions: Macrophage; mouse (Balb/c) abdominal macrophages, 100 ng/mL mouse IFN-γ + 0.05% SAC, overnight; TFA salts tested where prepared as such; read-out: IL-12p70-Inhibitory Activity IC50
Summary of the method: as §1

[4] = test system: IL-12p70 (the complex of IL-12p35 and p40); assay: IL-12p70 production inhibition in whole blood of mouse (IFN-γ/SAC stimulation, ELISA); format: cell-based; conditions: mouse (Balb/c) whole blood, EDTA, 100 ng/mL mouse IFN-γ + 1.25% SAC, overnight; TFA salts tested where prepared as such
Procedure: The blood was recovered from the mice (female Balb/c mice) (containing added EDTA) and it was used for the evaluation. To a cell culture medium, there were added 100 ng/mL of mouse interferon-γ, 1.25% (v/v) of a liquid containing killed cells derived from Staphylococcus aureus Cowan I strain (SAC) and a candidate compound, the resulting mixture was diluted to a volume equivalent to the blood and then the diluted medium was cultivated overnight. After the completion of the cultivation, the amount of IL-12p70 (the complex of IL-12p35 and p40) was quantitatively determined according to the ELISA assays while making use of the recovered supernatant of the culture medium and the 50% production-inhibitory concentrations (IC50) were calculated for Compounds 38, 80, 82, 83, 84, 85, 87, 90 and 91. (see Table 3).

[5] = test system: mouse enteritis model; assay: Inflammation-inhibitory action in mouse enteritis model (immigration of IL-10-/- cells), weight of large intestine; format: in vivo
Description: The method for establishing the mouse enteritis model by the immigration of IL-10−/−cells is, for instance, disclosed in Gastroenterology. 2009 February; 136(2): 564-74.e2. Epub 2008 Oct. 7.
The following method was used for the determination of the weight of intestinal tract as an indication of the drug efficacy: On the final day of the autopsy, the large intestine extending from the anus to immediately before the blind gut was surgically excised, the contents of the intestinal tract were washed away with physiological saline, the moisture adhered thereto was roughly removed and then the weight thereof was determined.
The inflammation-inhibitory effect of Compound 1 on the mouse enteritis model was evaluated using this evaluation system and the results obtained were plotted on FIG. 1.

With `Cc1cccc(/C=N/Nc2cc(N3CCOCC3)n3nccc3n2)c1` [Compound 9, N-(3-methyl-benzylidene)-N′-(7-morpholin-4-yl-pyrazolo-[1,5-a]pyrimidin-5-yl)-hydrazine] the IC50 [1] was 136 nM, the IC50 [2] was greater than 10000 nM and the IC50 [3] was 141 nM.
For `Cc1cccc(/C=N/Nc2cc(N3CCOCC3)n3nc(-c4ccncc4)cc3n2)c1` [Compound 83, N-(3-methyl-benzylidene)-N′-(7-morpholin-4-yl-2-pyridin-4-yl-pyrazolo[1,5-a]pyrimidin-5-yl)-hydrazine], the IC50 [4] was 880 nM, the “control effect on weight of the large intestine” value ([5]; mouse enteritis model, 30 mg/kg once a day) was “significant control effect” and the “weight of the large intestine increased due to the immigration of IL-10-/- cells” value ([5]; mouse enteritis model, 3, 10, 30 mg/kg, FIG. 1) was “controlled in a dose of Compound 83-dependent manner”. The IC50 [1] was 11.3 nM, the IC50 [2] was greater than 10000 nM and the IC50 [3] was 8.4 nM.
In the case of `Cc1cccc(/C=N/Nc2cc(N3CCOCC3)n3nc(-c4ccc(N5CCOCC5)nc4)cc3n2)c1` [Compound 85, N-(3-methyl-benzylidene)-N′-[7-morpholin-4-yl-2-(6-morpholin-4-yl-pyridin-3-yl)-pyrazolo[1,5-a]pyrimidin-5-yl]-hydrazine], the IC50 [4] is reported as 4200 nM, the IC50 [2] is reported as greater than 10000 nM and the IC50 [3] is reported as 3.2 nM.
Work on `C(=N\Nc1cc(N2CCOCC2)n2nc(-c3ccncc3)cc2n1)/c1ccc2cc[nH]c2c1` [Compound 117, N-(1H-indol-6-yl-methylidene)-N′-(7-morpholin-4-yl-2-pyridin-4-yl-pyrazolo[1,5-a]pyrimidin-5-yl)-hydrazine] yielded an IC50 [4] of 280 nM, an IC50 [1] of 97.8 nM and an IC50 [3] of 56 nM.
Work on `Cc1cccc(/C=N/Nc2cc(N3CCOCC3)n3nc(-c4ccncn4)cc3n2)c1` [Compound 119, N-(3-methyl-benzylidene)-N-(7-morpholin-4-yl-2-pyrimidin-4-yl-pyrazolo[1,5-a]pyrimidin-5-yl)-hydrazine] yielded an IC50 [4] of 1000 nM, an IC50 [1] of 70 nM and an IC50 [3] of 47 nM.
With `Cc1cccc(/C=N/Nc2cc(N3CC4C[C@H]3CO4)n3nc(-c4ccncc4)cc3n2)c1` [Compound 121, N-(3-methyl-benzylidene)-N′-[7-(2-oxo-5-azabicyclo-[2.2.1]hept-5-yl)-2-pyridin-4-yl-pyrazolo[1,5-a]pyrimidin-5-yl]-hydrazine] the IC50 [4] was 840 nM, the IC50 [1] was 150 nM and the IC50 [3] was 79 nM.
